Assay results from ChEMBL document CHEMBL2429768, “Eco-friendly synthesis and antimicrobial activities of substituted-5-(1H-indol-3-yl)methylene)-2,2-dimethyl-1,3-dioxane-4,6-dione derivatives” (2013).
≈ marks a conversion by molar mass, not a printed value.

Assays:
Assay type in all cases: functional
Bacillus subtilis [1] = test: Antibacterial activity against Bacillus subtilis at 100 ug/ml after 24 hrs by agar well diffusion method; details: read-out: DIZ
Aspergillus flavus [2] = test: Antifungal activity against Aspergillus flavus after 72 hrs by agar well diffusion method
Fusarium oxysporum [3] = test: Antifungal activity against Fusarium oxysporum at 50 ug/ml after 72 hrs by agar well diffusion method; details: read-out: DIZ
Staphylococcus aureus [4] = test: Antibacterial activity against Staphylococcus aureus ATCC 6538 at 50 ug/ml after 24 hrs by agar well diffusion method; details: ATCC 6538, 24 h, read-out: DIZ
Rhizoctonia solani [5] = test: Antifungal activity against Rhizoctonia solani after 72 hrs by agar well diffusion method
Aspergillus niger [6] = test: Antifungal activity against Aspergillus niger after 72 hrs by agar well diffusion method
Klebsiella pneumoniae [7] = test: Antibacterial activity against Klebsiella pneumoniae after 24 hrs by agar well diffusion method
Aspergillus flavus [8] = test: Antifungal activity against Aspergillus flavus at 200 ug/ml after 72 hrs by agar well diffusion method; details: read-out: DIZ
Fusarium oxysporum [9] = test: Antifungal activity against Fusarium oxysporum at 500 ug/ml after 72 hrs by agar well diffusion method; details: read-out: DIZ
Escherichia coli [10] = test: Antibacterial activity against Escherichia coli ATCC 8739 at 300 ug/ml after 24 hrs by agar well diffusion method; details: ATCC 8739, 24 h, read-out: DIZ
Aspergillus niger [11] = test: Antifungal activity against Aspergillus niger at 50 ug/ml after 72 hrs by agar well diffusion method; details: read-out: DIZ
Bacillus subtilis [12] = test: Antibacterial activity against Bacillus subtilis at 50 ug/ml after 24 hrs by agar well diffusion method; details: read-out: DIZ
Escherichia coli [13] = test: Antibacterial activity against Escherichia coli ATCC 8739 at 50 ug/ml after 24 hrs by agar well diffusion method; details: ATCC 8739, 24 h, read-out: DIZ
Fusarium oxysporum [14] = test: Antifungal activity against Fusarium oxysporum at 300 ug/ml after 72 hrs by agar well diffusion method; details: read-out: DIZ
Rhizoctonia solani [15] = test: Antifungal activity against Rhizoctonia solani at 100 ug/ml after 72 hrs by agar well diffusion method; details: read-out: DIZ
Aspergillus flavus [16] = test: Antifungal activity against Aspergillus flavus at 500 ug/ml after 72 hrs by agar well diffusion method; details: read-out: DIZ
Rhizoctonia solani [17] = test: Antifungal activity against Rhizoctonia solani at 500 ug/ml after 72 hrs by agar well diffusion method; details: read-out: DIZ
Escherichia coli [18] = test: Antibacterial activity against Escherichia coli ATCC 8739 at 100 ug/ml after 24 hrs by agar well diffusion method; details: ATCC 8739, 24 h, read-out: DIZ
Fusarium oxysporum [19] = test: Antifungal activity against Fusarium oxysporum at 200 ug/ml after 72 hrs by agar well diffusion method; details: read-out: DIZ
Bacillus subtilis [20] = test: Antibacterial activity against Bacillus subtilis at 300 ug/ml after 24 hrs by agar well diffusion method; details: read-out: DIZ
Escherichia coli [21] = test: Antibacterial activity against Escherichia coli ATCC 8739 after 24 hrs by agar well diffusion method; details: ATCC 8739, 24 h
Aspergillus flavus [22] = test: Antifungal activity against Aspergillus flavus at 100 ug/ml after 72 hrs by agar well diffusion method; details: read-out: DIZ
Klebsiella pneumoniae [23] = test: Antibacterial activity against Klebsiella pneumoniae at 500 ug/ml after 24 hrs by agar well diffusion method; details: read-out: DIZ
Bacillus subtilis [24] = test: Antibacterial activity against Bacillus subtilis at 500 ug/ml after 24 hrs by agar well diffusion method; details: read-out: DIZ
Klebsiella pneumoniae [25] = test: Antibacterial activity against Klebsiella pneumoniae at 300 ug/ml after 24 hrs by agar well diffusion method; details: read-out: DIZ
Aspergillus flavus [26] = test: Antifungal activity against Aspergillus flavus at 50 ug/ml after 72 hrs by agar well diffusion method; details: read-out: DIZ
Rhizoctonia solani [27] = test: Antifungal activity against Rhizoctonia solani at 200 ug/ml after 72 hrs by agar well diffusion method; details: read-out: DIZ
Staphylococcus aureus [28] = test: Antibacterial activity against Staphylococcus aureus ATCC 6538 at 100 ug/ml after 24 hrs by agar well diffusion method; details: ATCC 6538, 24 h, read-out: DIZ
Aspergillus niger [29] = test: Antifungal activity against Aspergillus niger at 300 ug/ml after 72 hrs by agar well diffusion method; details: read-out: DIZ
Rhizoctonia solani [30] = test: Antifungal activity against Rhizoctonia solani at 300 ug/ml after 72 hrs by agar well diffusion method; details: read-out: DIZ
Aspergillus niger [31] = test: Antifungal activity against Aspergillus niger at 500 ug/ml after 72 hrs by agar well diffusion method; details: read-out: DIZ
Staphylococcus aureus [32] = test: Antibacterial activity against Staphylococcus aureus ATCC 6538 after 24 hrs by agar well diffusion method; details: ATCC 6538, 24 h
Escherichia coli [33] = test: Antibacterial activity against Escherichia coli ATCC 8739 at 200 ug/ml after 24 hrs by agar well diffusion method; details: ATCC 8739, 24 h, read-out: DIZ
Staphylococcus aureus [34] = test: Antibacterial activity against Staphylococcus aureus ATCC 6538 at 200 ug/ml after 24 hrs by agar well diffusion method; details: ATCC 6538, 24 h, read-out: DIZ
Escherichia coli [35] = test: Antibacterial activity against Escherichia coli ATCC 8739 at 500 ug/ml after 24 hrs by agar well diffusion method; details: ATCC 8739, 24 h, read-out: DIZ
Fusarium oxysporum [36] = test: Antifungal activity against Fusarium oxysporum after 72 hrs by agar well diffusion method
Aspergillus niger [37] = test: Antifungal activity against Aspergillus niger at 100 ug/ml after 72 hrs by agar well diffusion method; details: read-out: DIZ
Staphylococcus aureus [38] = test: Antibacterial activity against Staphylococcus aureus ATCC 6538 at 300 ug/ml after 24 hrs by agar well diffusion method; details: ATCC 6538, 24 h, read-out: DIZ
Bacillus subtilis [39] = test: Antibacterial activity against Bacillus subtilis after 24 hrs by agar well diffusion method
Aspergillus niger [40] = test: Antifungal activity against Aspergillus niger at 200 ug/ml after 72 hrs by agar well diffusion method; details: read-out: DIZ
Rhizoctonia solani [41] = test: Antifungal activity against Rhizoctonia solani at 50 ug/ml after 72 hrs by agar well diffusion method; details: read-out: DIZ
Klebsiella pneumoniae [42] = test: Antibacterial activity against Klebsiella pneumoniae at 200 ug/ml after 24 hrs by agar well diffusion method; details: read-out: DIZ
Klebsiella pneumoniae [43] = test: Antibacterial activity against Klebsiella pneumoniae at 100 ug/ml after 24 hrs by agar well diffusion method; details: read-out: DIZ
Bacillus subtilis [44] = test: Antibacterial activity against Bacillus subtilis at 200 ug/ml after 24 hrs by agar well diffusion method; details: read-out: DIZ
Staphylococcus aureus [45] = test: Antibacterial activity against Staphylococcus aureus ATCC 6538 at 500 ug/ml after 24 hrs by agar well diffusion method; details: ATCC 6538, 24 h, read-out: DIZ
Fusarium oxysporum [46] = test: Antifungal activity against Fusarium oxysporum at 100 ug/ml after 72 hrs by agar well diffusion method; details: read-out: DIZ
Klebsiella pneumoniae [47] = test: Antibacterial activity against Klebsiella pneumoniae at 50 ug/ml after 24 hrs by agar well diffusion method; details: read-out: DIZ
Aspergillus flavus [48] = test: Antifungal activity against Aspergillus flavus at 300 ug/ml after 72 hrs by agar well diffusion method; details: read-out: DIZ

- MIC (Aspergillus flavus [2]): 40 mg/L (≈ 134 µM)
- MIC (Rhizoctonia solani [5]): 35 mg/L (≈ 117 µM)
- MIC (Aspergillus niger [6]): 40 mg/L (≈ 134 µM)
- MIC (Klebsiella pneumoniae [7]): 15 mg/L (≈ 50.1 µM)
- MIC (Escherichia coli [21]): 15 mg/L (≈ 50.1 µM)
- MIC (Staphylococcus aureus [32]): 25 mg/L (≈ 83.5 µM)
- MIC (Fusarium oxysporum [36]): 35 mg/L (≈ 117 µM)
- MIC (Bacillus subtilis [39]): 30 mg/L (≈ 100 µM)
SMILES: CCn1cc(C=C2C(=O)OC(C)(C)OC2=O)c2ccccc21
- zone of inhibition at 100 µg/mL (Bacillus subtilis [1]): 9 mm
- zone of inhibition at 50 µg/mL (Fusarium oxysporum [3]): 7 mm
- zone of inhibition at 50 µg/mL (Staphylococcus aureus [4]): 6 mm
- zone of inhibition at 200 µg/mL (Aspergillus flavus [8]): 12 mm
- zone of inhibition at 500 µg/mL (Fusarium oxysporum [9]): 29 mm
- zone of inhibition at 300 µg/mL (Escherichia coli [10]): 20 mm
- zone of inhibition at 50 µg/mL (Aspergillus niger [11]): 6 mm
- zone of inhibition at 50 µg/mL (Bacillus subtilis [12]): 4 mm
- zone of inhibition at 50 µg/mL (Escherichia coli [13]): 8 mm
- zone of inhibition at 300 µg/mL (Fusarium oxysporum [14]): 21 mm
- zone of inhibition at 100 µg/mL (Rhizoctonia solani [15]): 12 mm
- zone of inhibition at 500 µg/mL (Aspergillus flavus [16]): 23 mm
- zone of inhibition at 500 µg/mL (Rhizoctonia solani [17]): 29 mm
- zone of inhibition at 100 µg/mL (Escherichia coli [18]): 13 mm
- zone of inhibition at 200 µg/mL (Fusarium oxysporum [19]): 16 mm
- zone of inhibition at 300 µg/mL (Bacillus subtilis [20]): 14 mm
- zone of inhibition at 100 µg/mL (Aspergillus flavus [22]): 9 mm
- zone of inhibition at 500 µg/mL (Klebsiella pneumoniae [23]): 31 mm
- zone of inhibition at 500 µg/mL (Bacillus subtilis [24]): 22 mm
- zone of inhibition at 300 µg/mL (Klebsiella pneumoniae [25]): 23 mm
- zone of inhibition at 50 µg/mL (Aspergillus flavus [26]): 4 mm
- zone of inhibition at 200 µg/mL (Rhizoctonia solani [27]): 16 mm
- zone of inhibition at 100 µg/mL (Staphylococcus aureus [28]): 10 mm
- zone of inhibition at 300 µg/mL (Aspergillus niger [29]): 18 mm
- zone of inhibition at 300 µg/mL (Rhizoctonia solani [30]): 21 mm
- zone of inhibition at 500 µg/mL (Aspergillus niger [31]): 25 mm
- zone of inhibition at 200 µg/mL (Escherichia coli [33]): 16 mm
- zone of inhibition at 200 µg/mL (Staphylococcus aureus [34]): 14 mm
- zone of inhibition at 500 µg/mL (Escherichia coli [35]): 30 mm
- zone of inhibition at 100 µg/mL (Aspergillus niger [37]): 10 mm
- zone of inhibition at 300 µg/mL (Staphylococcus aureus [38]): 18 mm
- zone of inhibition at 200 µg/mL (Aspergillus niger [40]): 14 mm
- zone of inhibition at 50 µg/mL (Rhizoctonia solani [41]): 7 mm
- zone of inhibition at 200 µg/mL (Klebsiella pneumoniae [42]): 18 mm
- zone of inhibition at 100 µg/mL (Klebsiella pneumoniae [43]): 14 mm
- zone of inhibition at 200 µg/mL (Bacillus subtilis [44]): 11 mm
- zone of inhibition at 500 µg/mL (Staphylococcus aureus [45]): 25 mm
- zone of inhibition at 100 µg/mL (Fusarium oxysporum [46]): 12 mm
- zone of inhibition at 50 µg/mL (Klebsiella pneumoniae [47]): 9 mm
- zone of inhibition at 300 µg/mL (Aspergillus flavus [48]): 15 mm
